Laboratory results reported in patent US20250136606A1, “MODULATORS OF TRPML, THEIR COMPOSITIONS AND METHODS OF USE” (Caraway Therapeutics, Inc., priority 2021, published 2025).

Tests used:
Assay type in all cases: cell-based
TRPML2 = biological target: T1, TRPML2 (Homo sapiens, UniProt Q8IZK6); test: Fluorescent TRPML2 assay (performed as for TRPML1, substituting the TRPML2 subtype)
T1 construct: expressed in transfected cells
T1 sequence (Q8IZK6 1-566): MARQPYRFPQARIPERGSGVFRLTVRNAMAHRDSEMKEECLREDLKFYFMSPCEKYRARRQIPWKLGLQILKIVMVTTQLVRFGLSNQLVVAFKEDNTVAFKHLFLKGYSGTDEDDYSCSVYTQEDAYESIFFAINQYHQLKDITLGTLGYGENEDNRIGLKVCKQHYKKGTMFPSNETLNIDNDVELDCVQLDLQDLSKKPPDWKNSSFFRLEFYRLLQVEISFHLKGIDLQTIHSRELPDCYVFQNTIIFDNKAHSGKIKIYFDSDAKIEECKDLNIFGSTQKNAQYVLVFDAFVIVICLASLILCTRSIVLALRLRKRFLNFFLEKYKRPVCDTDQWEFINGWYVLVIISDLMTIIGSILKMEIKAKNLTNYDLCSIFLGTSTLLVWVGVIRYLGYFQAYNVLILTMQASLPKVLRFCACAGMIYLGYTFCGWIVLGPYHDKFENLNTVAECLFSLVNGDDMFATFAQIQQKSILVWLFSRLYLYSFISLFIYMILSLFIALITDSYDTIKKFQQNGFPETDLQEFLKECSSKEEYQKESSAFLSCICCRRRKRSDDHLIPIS
Outline: (§1)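 Agonist activity is scored as percent of plate controls from Fluo4 fluorescence after dye-loaded, doxycycline-induced HEK-293 Trex cells meet compound in high-calcium (10 mM) Ringer's. Compounds run in half-log dilutions from 20 micromolar final, in triplicate.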

TRPML3 = biological target: T2, TRPML3 (Homo sapiens, UniProt Q8TDD5); test: Fluorescent TRPML3 assay (performed as for TRPML1, substituting the TRPML3 subtype)
T2 construct: expressed in transfected cells
T2 sequence (Q8TDD5 1-553): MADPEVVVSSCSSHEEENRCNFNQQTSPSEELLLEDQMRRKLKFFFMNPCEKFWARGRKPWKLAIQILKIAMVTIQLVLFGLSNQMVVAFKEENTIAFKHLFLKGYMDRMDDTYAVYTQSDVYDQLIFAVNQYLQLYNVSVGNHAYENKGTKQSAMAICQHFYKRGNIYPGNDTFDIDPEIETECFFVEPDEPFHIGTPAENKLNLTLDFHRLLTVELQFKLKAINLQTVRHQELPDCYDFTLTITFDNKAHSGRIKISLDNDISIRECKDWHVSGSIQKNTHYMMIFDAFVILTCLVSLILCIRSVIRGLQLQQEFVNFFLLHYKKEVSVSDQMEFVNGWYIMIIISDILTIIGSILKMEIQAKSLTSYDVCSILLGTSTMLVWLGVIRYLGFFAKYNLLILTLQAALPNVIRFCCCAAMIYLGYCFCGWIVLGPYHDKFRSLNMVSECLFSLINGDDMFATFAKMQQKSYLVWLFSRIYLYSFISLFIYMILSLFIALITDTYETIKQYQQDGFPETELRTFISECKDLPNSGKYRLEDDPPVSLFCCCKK
Outline: as §1

TRPML1 = TRPML1 (Homo sapiens, UniProt Q9GZU1); test: Fluorescent TRPML1 assay (Fluo4-AM calcium fluorescence in doxycycline-induced HEK-293 Trex cells)
Outline: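 First, expression of surface-targeted mutant human TRPML1 is induced in HEK-293 Trex cells with 0.5 ug/mL doxycycline the day before. Next, cells take up 1 micromolar Fluo4-AM in Ringer's with 0.1% Pluronic. Finally, they are added to compounds (6 nanomolar–20 micromolar final) in 10 mM calcium Ringer's and fluorescence is read.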

Chain of TRPML1 (Q9GZU1 whole entry L15A/L16A/L577A/L578A, form open): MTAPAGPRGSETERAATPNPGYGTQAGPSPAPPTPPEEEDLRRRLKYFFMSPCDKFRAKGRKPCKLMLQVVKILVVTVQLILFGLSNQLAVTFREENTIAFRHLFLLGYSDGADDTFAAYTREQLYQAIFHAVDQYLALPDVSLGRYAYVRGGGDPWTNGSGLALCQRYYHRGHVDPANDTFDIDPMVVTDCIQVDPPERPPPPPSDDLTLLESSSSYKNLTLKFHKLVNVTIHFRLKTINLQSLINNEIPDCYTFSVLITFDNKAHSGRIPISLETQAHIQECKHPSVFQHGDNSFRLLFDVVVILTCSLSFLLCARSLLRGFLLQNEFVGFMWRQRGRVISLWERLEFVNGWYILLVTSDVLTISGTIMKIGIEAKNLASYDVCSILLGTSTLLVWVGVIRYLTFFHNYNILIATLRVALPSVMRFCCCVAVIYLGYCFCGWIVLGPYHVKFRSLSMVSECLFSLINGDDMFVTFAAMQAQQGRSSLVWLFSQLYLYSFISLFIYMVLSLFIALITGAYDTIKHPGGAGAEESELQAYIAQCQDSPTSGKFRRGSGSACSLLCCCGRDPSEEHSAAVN

| Structure (SMILES) | EC50 (TRPML2) [nM] | EC50 (TRPML3) [nM] | EC50 (TRPML1) [nM] |
| --- | --- | --- | --- |
| C[C@@H]1CN(c2ncnc3c2c(C(F)(F)F)cn3-c2cc(C#N)ccn2)[C@H](C)CN1C(=O)OC(C)(C)C [Compound 503, tert-butyl (2R,5R)-4-(7-(4-cyanopyridin-2-yl)-5-(trifluoromethyl)-7H-pyrrolo[2,3-d]pyrimidin-4-yl)-2,5-dimethylpiperazine-1-carboxylate] | > 2000 | 100 to 500 | < 100 |
| C[C@@H]1CN(c2ncnc3c2c(N2CC4(COC4)C2)cn3-c2cc(C#N)ccn2)[C@@H](C)CN1C(=O)OC(C)(C)C [Compound 504, tert-butyl (2R,5S)-4-(7-(4-cyanopyridin-2-yl)-5-(2-oxa-6-azaspiro[3.3]heptan-6-yl)-7H-pyrrolo[2,3-d]pyrimidin-4-yl)-2,5-dimethylpiperazine-1-carboxylate] | 100 to 500 | < 100 | < 100 |
| C[C@@H]1CN(c2ncnc3c2c(C(F)(F)F)cn3-c2cc(F)ccn2)[C@@H](C)CN1C(=O)OC(C)(C)C [Compound 505, tert-butyl (2R,5S)-4-(7-(4-fluoropyridin-2-yl)-5-(trifluoromethyl)-7H-pyrrolo[2,3-d]pyrimidin-4-yl)-2,5-dimethylpiperazine-1-carboxylate] | > 2000 | < 100 | < 100 |
| C[C@@H]1CN(c2ncnc3c2c(C(F)(F)F)cn3-c2cc(Cl)ccn2)[C@@H](C)CN1C(=O)OC(C)(C)C [Compound 506, tert-butyl (2R,5S)-4-(7-(4-chloropyridin-2-yl)-5-(trifluoromethyl)-7H-pyrrolo[2,3-d]pyrimidin-4-yl)-2,5-dimethylpiperazine-1-carboxylate] | 500 to 2000 | < 100 | < 100 |
| CCCOc1cn(-c2cc(C#N)ccn2)c2ncnc(N3C[C@@H](C)N(C(=O)OC(C)(C)C)C[C@@H]3C)c12 [Compound 507, tert-butyl (2R,5S)-4-(7-(4-cyanopyridin-2-yl)-5-propoxy-7H-pyrrolo[2,3-d]pyrimidin-4-yl)-2,5-dimethylpiperazine-1-carboxylate] | < 100 | < 100 | < 100 |
| C[C@@H]1CN(c2ncnc3c2c(C(F)(F)F)cn3-c2cc(C#N)ncn2)[C@@H](C)CN1C(=O)OC(C)(C)C [Compound 509, tert-butyl (2R,5S)-4-(7-(6-cyanopyrimidin-4-yl)-5-(trifluoromethyl)-7H-pyrrolo[2,3-d]pyrimidin-4-yl)-2,5-dimethylpiperazine-1-carboxylate] | < 100 | < 100 | < 100 |
| C[C@@H]1CN(c2ncnc3c2c(C(F)(F)F)cn3-c2nccc(C#N)n2)[C@@H](C)CN1C(=O)OC(C)(C)C [Compound 510, tert-butyl (2R,5S)-4-(7-(4-cyanopyrimidin-2-yl)-5-(trifluoromethyl)-7H-pyrrolo[2,3-d]pyrimidin-4-yl)-2,5-dimethylpiperazine-1-carboxylate] | > 2000 | < 100 | 100 to 500 |
| C[C@@H]1CN(c2ncnc3c2c(C(F)F)cn3-c2cc(C#N)ccn2)CCN1C(=O)OC(C)(C)C [Compound 511, tert-butyl (R)-4-(7-(4-cyanopyridin-2-yl)-5-(difluoromethyl)-7H-pyrrolo[2,3-d]pyrimidin-4-yl)-2-methylpiperazine-1-carboxylate] | < 100 | < 100 | < 100 |
| CCC(CC)OC(=O)N1C[C@H](C)N(c2ncnc3c2c(C(F)(F)F)cn3-c2cc(C#N)ccn2)C[C@H]1C [Compound 512, pentan-3-yl (2R,5S)-4-(7-(4-cyanopyridin-2-yl)-5-(trifluoromethyl)-7H-pyrrolo[2,3-d]pyrimidin-4-yl)-2,5-dimethylpiperazine-1-carboxylate] | 100 to 500 | < 100 | < 100 |
| C[C@@H]1CN(c2ncnc3c2c(C(F)(F)F)cn3-c2cccc(C#N)c2)[C@@H](C)CN1C(=O)OC(C)(C)C [Compound 513, tert-butyl (2R,5S)-4-(7-(3-cyanophenyl)-5-(trifluoromethyl)-7H-pyrrolo[2,3-d]pyrimidin-4-yl)-2,5-dimethylpiperazine-1-carboxylate] | 500 to 2000 | < 100 | < 100 |
